These results are taken from patent US4077981A, “Certain 1-alkyl-2-dichlorophenyliminopyrrolidines” (Bayer Aktiengesellschaft, priority 1968, dated 1978).

The structures appear in SMILES notation. Where two headings read alike, the source gives them in different places. Some results are limits rather than exact numbers.

For data set [1], the system named is Boophilus microplus, Biarra strain (resistant). Nature of the data set: In-vitro test for ovicidal effect on ticks (Biarra strain). To be noted: for Ovicidal effect: 50% inhibition with the stated concentration of active compound: Table 4, concentration giving 50% inhibition; for Ovicidal effect: 50% inhibition with the stated concentration of active compound / Ovicidal effect: 100% inhibition with the stated concentration of active compound: ovicidal only (marked not adulticidal); for Ovicidal effect: 100% inhibition with the stated concentration of active compound: Table 4, concentration giving 100% inhibition. As for the experimental part:
(§1) In-vitro Test for Ovicidal Effect on Ticks
The emulsion concentrate so obtained is diluted with water to the application concentration desired in each case.
After immersion of, in each case, 10 female specimens of the various strains of ticks, the individual ticks are transferred to plastic dishes, the bottom of each of which is covered with a disc of filter paper.

In data set [2] the test system is Boophilus microplus, Biarra strain. Briefly: In-vivo test against ticks on cattle. Also noted: species or system Boophilus microplus (on cattle). As for the experimental part: In-vivo test against ticks on cattle
3 parts of the particular active compound are mixed with 7 parts of a mixture of equal parts by weight of ethyleneglycol monomethyl ether and nonylphenyl polyglycol ether. The emulsion concentrate so obtained is diluted with water to the application concentration desired in each case.
Cattle which have been infected (12 times at intervals of 2 days) with resistant larvae of ticks of the species Boophilus microplus, Biarra strain, are sprayed on the 24th day after the first infection with the preparation of the given active compound so obtained.
The effect of the preparation of the given active compound is determined by ascertaining the number of adult female ticks which have reached development on the treated cattle and later lay viable eggs. This number is compared with the number of adult femal ticks which have reached development on untreated cattle.
As a measure of the intensity of the infestation before treatment, there is used the number of adult females which reach development in the case of the treated and untreated animals in the last three days before the time of treatment.

Data set [3] relates to Boophilus microplus, normally sensitive strain. Nature of the data set: In-vitro test for ovicidal effect on ticks (normally sensitive strain). To be noted: Rhipicephalus microplus, 840 h, after 35 days, read-out: Inhibition of egg depositing. The protocol: as §1
(§2) 3 g of the particular active compound are mixed with 7 g of a mixture of equal parts by weight of ethyleneglycol monomethyl ether and nonylphenyl polyglycol ether. The emulsion concentrate so obtained is diluted with water to the application concentration desired in each case.
(§3) Adult, fully engorged female ticks of the species Boophilus microplus (resistant) are immersed for 1 minute in this preparation of the given active compound. After immersion of, in each case, 10 female specimens of the various strains of ticks, the individual ticks are transferred to plastic dishes, the bottom of each of which is covered with a disc of filter paper. As a control, similar ticks of a normally sensitive strain are treated in exactly the same manner.
(§4) After 35 days, the effectiveness of the preparation of the given active compound is determined by ascertaining the inhibition of the depositing of fertile eggs compared with the egg depositing of untreated control ticks. The effect is stated in %, 100% meaning that fertile eggs ceased to be deposited, and 0% signifying that the ticks have deposited eggs in normal manner like the untreated control ticks.

Data set [4] concerns Boophilus microplus, Ridgeland strain (resistant). Briefly: In-vitro test for ovicidal effect on ticks (Ridgeland strain). To be noted: for Ovicidal effect: 100% inhibition with the stated concentration of active compound / Ovicidal effect: >50% inhibition with the stated concentration of active compound: Table 1b, * Ridgeland strain; for Ovicidal effect: 100% inhibition with the stated concentration of active compound: concentration giving 100% inhibition; for Ovicidal effect: >50% inhibition with the stated concentration of active compound: concentration giving >50% inhibition. The protocol: as §1, §2, §3, §4

In the next data set the test system is Boophilus, Biarra strain. Briefly: In-vitro test for adulticidal effect on ticks (24 hours). Also on record: species or system Boophilus microplus. The following applies: Table 4, after 24 hours, at the concentrations stated. The protocol:
In addition, the adulticidal effectiveness of the preparation of the given active compound after 24 hours is determined by ascertaining the voluntary movement of limbs and bodies of the immersed adult ticks after stimulation with a fine needle compared with the voluntary movement of limbs and bodies of the untreated adult ticks. The effectiveness is stated in %, 100% meaning that no movements of any kind of the limbs and bodies were any longer detectable, and 0% signifying that the ticks moved limbs and bodies in normal manner.

The next data set can be described thus: Toxicity on the mouse. The following applies: in vivo, read-out: Toxicity (highest survived dose). As for the experimental part:
The toxicity determined on the mouse is: orally, 500 mg/kg; subcutaneously,500 mg/kg (highest survived doses).

Broadly, the inhibition is the share of the control response that was lost under treatment. Take `CN1CCCC1=Nc1ccc(Cl)cc1Cl` [l1, 1-methyl-2-(2',4'-dichloro-phenylimino)-pyrrolidine]: the inhibition at 0.01 % strength was found to be 0% in data set [1] (Rhipicephalus microplus, 840 h, 0.01% active compound, resistant, after 35 days, read-out: Inhibition of egg depositing); 0% in data set [3] (0.01% active compound); 0% in data set [4] (Rhipicephalus microplus, 840 h, 0.01% active compound, Ridgeland strain, resistant, after 35 days, read-out: Inhibition of egg depositing). For the same molecule, the inhibition at 0.03 % strength was over 50% in data set [1] (Rhipicephalus microplus, 840 h, 0.03% active compound, resistant, after 35 days, read-out: Inhibition of egg depositing); over 50% in data set [3] (0.03% active compound); over 50% in data set [4] (Rhipicephalus microplus, 840 h, 0.03% active compound, Ridgeland strain, resistant, after 35 days, read-out: Inhibition of egg depositing). Moreover, the inhibition at 0.1 % strength in data set [1] (Rhipicephalus microplus, 840 h, 0.1% active compound, resistant, after 35 days, read-out: Inhibition of egg depositing) came out at 100%; in data set [3] (0.1% active compound), 100%; in data set [4] (Rhipicephalus microplus, 840 h, 0.1% active compound, Ridgeland strain, resistant, after 35 days, read-out: Inhibition of egg depositing) it was 100%. Further, the inhibition at 0.3 % strength is 100% in data set [1] (Rhipicephalus microplus, 840 h, 0.3% active compound, resistant, after 35 days, read-out: Inhibition of egg depositing); 100% in data set [3] (0.3% active compound); 100% in data set [4] (Rhipicephalus microplus, 840 h, 0.3% active compound, Ridgeland strain, resistant, after 35 days, read-out: Inhibition of egg depositing). In addition, the inhibition at 1 % strength in data set [1] (Rhipicephalus microplus, 840 h, 1.0% active compound, resistant, after 35 days, read-out: Inhibition of egg depositing) was determined as 100%; in data set [3] (1.0% active compound), 100%; in data set [4] (Rhipicephalus microplus, 840 h, 1.0% active compound, Ridgeland strain, resistant, after 35 days, read-out: Inhibition of egg depositing), 100%. Further, the “Number of female adult ticks which reach development on the cattle” value in data set [2] (0.3%, days after treatment +4+5+6) is 1; in data set [2] (0.3%, days after treatment +7+8+9), 119; in data set [2] (0.4%, days after treatment +7+8+9), 72; in data set [2] (0.5%, days after treatment +7+8+9), 1; in data set [2] (0.5%, days after treatment +10+11+12), 7; in data set [2] (0.5%, days after treatment +13+14+15), 3. Besides, in data set [2] (0.5%, days after treatment +16+17+18), the “Number of female adult ticks which reach development on the cattle” value came out at 1. The “Total number of female adult ticks which reach development on the cattle” value in data set [2] (0.5%, total 1-21 days) came out at 12.
Take `CCCN1CCCC1=Nc1ccc(F)cc1Cl`: in data set [1], the “Ovicidal effect: 50% inhibition with the stated concentration of active compound” value (shortened to “Ovicidal effect: 50% inhibition”) turned out to be 0.03 % by weight and the “Ovicidal effect: 100% inhibition with the stated concentration of active compound” value (shortened to “Ovicidal effect: 100% inhibition”) worked out at 0.1 % by weight. For the same molecule, the Adulticidal effect entry in the data set on Boophilus, Biarra strain is “not adulticidal”.
The like results for `C=CCN1CCCC1=Nc1cc(Cl)c(Cl)cc1Cl` were, in that order, 0.02 % by weight, 0.03 % by weight and “not adulticidal”.
The like results for `CC=CCN1CCCC1=Nc1ccc(Br)cc1CC` were, in that order, 0.05 % by weight, 0.1 % by weight and “not adulticidal”.
In the case of `C=CCN1CCCC1=Nc1ccc(Cl)cc1C`, in data set [1], the “Ovicidal effect: 50% inhibition” value is 0.02 % by weight and the “Ovicidal effect: 100% inhibition” value is 0.03 % by weight. In addition, the Adulticidal effect entry in the data set with Boophilus, Biarra strain is “not adulticidal”.
For `C=CCN1CCCC1=Nc1ccc(F)cc1Cl`, in data set [1], the “Ovicidal effect: 50% inhibition” value was determined as 0.03 % by weight and the “Ovicidal effect: 100% inhibition” value is 0.1 % by weight. Further, in the data set on Boophilus, Biarra strain, the Adulticidal effect entry is given as “not adulticidal”.
The like results for `C=CCN1CCCC1=Nc1cc(Cl)ccc1Cl` were, in that order, 0.03 % by weight, 0.1 % by weight and “not adulticidal”.
The like results for `CCCCN1CCCC1=Nc1ccc(F)cc1Cl` were, in that order, 0.01 % by weight, 0.03 % by weight and “not adulticidal”.
`C=CCN1CCCC1=Nc1cccc(Cl)c1Cl`: in data set [1], the “Ovicidal effect: 50% inhibition” value is given as 0.008 % by weight and the “Ovicidal effect: 100% inhibition” value is on record as 0.01 % by weight. In addition, in the data set with Boophilus, Biarra strain, the Adulticidal effect entry is “not adulticidal”.
On to `Cc1cc(Cl)ccc1N=C1CCCN1C(C)C` [Compound 241], for which, in data set [4], the “Ovicidal effect: 100% inhibition” value worked out at 1.0 % by weight and the “Ovicidal effect: >50% inhibition with the stated concentration of active compound” value is listed as 0.3 % by weight.
The like results for `CCCN1CCCC1=Nc1ccc(Cl)cc1C` [Compound 211] were, in that order, 0.1 % by weight and 0.03 % by weight.
Consider `C=CCN1CCCC1=Nc1ccc(Cl)cc1Cl` [Example 6, 1-(α-allyl)-2-(2',4'-dichloro-phenylimino)-pyrrolidine], for which the MTD stood at 500 mg/kg in the data set “Toxicity on the mouse” (po, orally) and 500 mg/kg in the data set “Toxicity on the mouse” (sc, subcutaneously).
On to `CC=CCN1CCCC1=Nc1ccc(Cl)cc1Cl`, for which, in data set [1], the “Ovicidal effect: 50% inhibition” value amounted to 0.03 % by weight and the “Ovicidal effect: 100% inhibition” value was found to be 0.01 % by weight. Also, in the data set on Boophilus, Biarra strain, the Adulticidal effect entry is “not adulticidal”.
